Experimental data from US10894777B2, “TG2 inhibitor piperazine compounds and uses thereof” (UNIVERSITY OF OTTAWA, priority 2016, dated 2021).
One block for each compound: values may come before it. Non-standard residues stand in square brackets, D forms with d. Residues, ends and D or L forms follow the SMILES beside them. *: point of attachment. DON = [N-]=[N+]=CC(=O)CC[C@H](N)C(=O)O; Cbz = O=C(OCc1ccccc1)*

Experiments:
[1] = biological target: T1, TG2 (Homo sapiens, UniProt P21980); test: In vitro GTP binding assay after inhibition of hTG2 (BODIPY GTP-γ-S); conditions: inhibitor 2×KI, 30 min; 3 μM GTP-γ-S FL BODIPY
T1 sequence (P21980 1-687): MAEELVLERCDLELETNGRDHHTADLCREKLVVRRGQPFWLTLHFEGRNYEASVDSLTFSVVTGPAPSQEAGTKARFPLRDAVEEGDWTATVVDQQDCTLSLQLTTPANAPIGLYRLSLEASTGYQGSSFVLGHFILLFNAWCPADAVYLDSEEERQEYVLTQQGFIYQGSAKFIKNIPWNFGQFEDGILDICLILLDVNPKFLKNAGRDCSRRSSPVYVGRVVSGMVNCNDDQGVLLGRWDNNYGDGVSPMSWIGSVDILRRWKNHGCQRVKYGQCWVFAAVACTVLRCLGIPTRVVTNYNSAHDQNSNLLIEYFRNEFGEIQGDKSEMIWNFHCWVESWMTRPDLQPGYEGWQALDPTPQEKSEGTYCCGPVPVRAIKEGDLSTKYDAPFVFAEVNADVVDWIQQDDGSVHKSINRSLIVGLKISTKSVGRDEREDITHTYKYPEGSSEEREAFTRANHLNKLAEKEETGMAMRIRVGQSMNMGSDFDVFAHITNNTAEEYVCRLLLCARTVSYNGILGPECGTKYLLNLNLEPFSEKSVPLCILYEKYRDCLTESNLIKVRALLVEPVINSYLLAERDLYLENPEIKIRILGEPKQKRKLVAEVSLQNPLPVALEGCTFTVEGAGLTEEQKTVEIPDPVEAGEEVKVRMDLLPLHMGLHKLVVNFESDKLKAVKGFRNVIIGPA
Method: In vitro GTP binding assay. GTP binding was measured using a method similar to that reported previously (McEwen, D. P. et al., Anal. Biochem. (2001), 291 (1): 109-117). […] The buffer was then exchanged to 100 mM MOPS (pH=7.0), 1 mM EGTA and 5 mM MgCl2 to remove calcium using a 10-kDa molecular weight cut off membrane. The fluorescent GTP analog was then added to give a final concentration of 3.0 μM and fluorescence was then measured on a microplate reader after 10 minutes of incubation (Ex/Em: 490/520 nm).

[2] = biological target: T1, TG2; test: Kinetic inactivation of purified recombinant human TG2, continuous spectrophotometric activity assay (Examples 3, 10); type: biochemical; parameters: made in house; conditions: Table 4
Method: Kinetic studies were carried out in vitro, using purified recombinant human TG2 (Roy, I. et al., Protein Expr. Purif. 87: 41-46, 2013) and a direct, continuous spectrophotometric activity assay (Leblanc, A. et al., Biochemistry 40: 8335-8342, 2001).
Kinetics. Kinetic runs were performed at 25° C. in 100 mM MOPS buffer (pH 7.0) containing 3 mM CaCl2 and 50 μM EDTA. […] Stock solutions of the substrate and inhibitors were prepared in DMF such that the final concentration of this co-solvent was constant at 10% v/v. Reactions were initiated with the addition of enzyme with an activity of approximately 0.05 U/mL. Kinetic evaluation was carried out by the method of Stone and Hofsteenge (Stone, S. R. and Hofsteenge, J., Biochem. J. 230: 497-502, 1985). […] Observed first-order rate constants of inactivation were determined from non-linear regression, to a mono-exponential model. These rate constants were in turn fit to equation 1 by non-linear regression, providing the kinetic parameters
Kinetic parameters were determined as described above.

[3] = biological target: T1, TG2; test: Colorimetric transamidase activity assay (AL5 substrate), hTG2; type: biochemical; conditions: Table 7
Method: In Vitro Assays. Colorimetric transamidase activity assay. The activities of hTG1, hTG2 and hTG6 were measured via a colorimetric assay using the chromogenic substrate Cbz-Glu(γ-p-nitrophenyl ester)Gly (AL5). The assay was conducted at 25° C. in 100 mM MOPS buffer (pH 6.5) containing 3.0 mM CaCl2 and 50 μM EDTA. […] A stock solution of AL5 was prepared in DMSO such that the final concentration of this co-solvent was constant at 2.5% v/v. Stock solutions of the inhibitors were made in the buffer system previously described. The reaction was initiated with the addition of 40-60 mU/mL of the respective enzyme (0.10 μM hTG1, 0.25 μM hTG2 or 0.32 μM hTG6). Product formation was monitored at 405 nm in a polystyrene 96-well microplate using a BioTek Synergy 4 plate reader. […] Observed first-order rate constants of inactivation (kobs) were determined from non-linear regression fit to a mono-exponential model (Equation 1) of the observed absorbance of the enzymatic hydrolysis product, p-nitrophenolate (pNP). […] Experiments were done in triplicate and variation between repeats was less than 30%.

[4] = system: TG2 fusion protein mCer-TG2-YFP; test: Fluorescence lifetime imaging (FLIM) of mCer-TG2-YFP conformation, SCC-13 cells; type: cell-based, human; conditions: 10 μM A23187, 24 h; control 2.94 ns
Method: We monitored the impact of each inhibitor on intracellular TG2 structure using FLIM (Fluorescence Lifetime Imaging Microscopy). FLIM is a quantitative method of assessing fluorescence lifetime that measures energy transfer between donor and accept probes Fluorescence lifetime is measured in nanoseconds and a short lifetime correlates with close contact between probes (FIG. 29B). An advantage of this method is that fluorescent lifetimes are independent of probe concentration. In the present experiments, we expressed in cells a TG2 fusion protein in which the donor probe (mCER) is fused to the N-terminus and the acceptor probe (YFP) at the C-terminus (FIG. 29B). mCER and YFP comprise an ideal donor/acceptor pair; the donor probe is excited by laser illumination and energy transfer to the acceptor is monitored. The fluorescent lifetime is shorter when TG2 is in the closed conformation which brings mCER and YFP close together. SCC-13 cells were electroporated with empty vector, mCER-TG2 or mCER-TG2-YFP.
Fluorescence lifetime imaging. Fluorescence lifetime images were acquired using FLIM system (Alba 5 from ISS). […] Emission was observed through bandpass filter 480/35 nm (Chroma Technology) and detected by a photomultiplier H7422-40 (Hamamatsu). FLIM data were acquired using time-domain modality (SPC-830 TCSPC module from Becker and Hickl GmbH). […] To account for intensity heterogeneity within single intensity images, two to five consecutive scans were acquired and summed to build FLIM intensity image for lifetime analysis. […] FLIM data were analyzed using VistaVision Suite software (Vista v.213 from ISS). Lifetime images were generated by fitting data using single exponential intensity decay model. Intensity threshold for lifetime analysis was set of at least 3-fold above the intensity of dim cells and fitting procedure was performed for binned pixels at level of 3 (7×7 pixels). Lifetime distribution within image is represented with histogram showing pixel frequency of specific lifetime. The average lifetime values with standard deviations were calculated based on all processed pixels in lifetime image. FRET values were calculated according to the formula ET=1−(τDA/τD), where τD is the lifetime of donor (mCer-TG2) and τDA is the lifetime of donor-acceptor pair (mCer-TG2—YFP).

[5] = system: SCC-13 cells; test: Spheroid formation / survival assay, SCC-13 cells (ECS cells); type: cell-based, human; conditions: for spheroid formation with kinase inhibitor: PF-573228 10 μM, 6 d
Method: Spheroid formation assay. Cells, maintained as monolayer cultures in growth medium consisting of DMEM (Invitrogen, Frederick, Md.) supplemented with 4.5 mg/ml D-glucose, […] L-glutamine, […] sodium pyruvate, and 5% fetal calf serum, were harvested, collected by centrifugation, and resuspended in spheroid medium comprising DMEM/F12 (1:1) (DMT-10-090-CV, Mediatech Inc., Manassas, Va.) supplemented with 2% B27 serum-free supplement (17504-044, Invitrogen, Frederick, Md.), 20 ng/ml EGF (E4269, Sigma, St. Louis, Mo.), 0.4% bovine serum albumin (B4287, Sigma) and 4 μg/ml insulin (19278 Sigma, St. Louis, Mo.). The cells (40,000) were plated in 9.6 cm^2 wells in Costar six well ultra-low attachment cluster dishes (4371, Corning, Tewksbury, Mass.). Spheroid size and number was monitored with time in culture as previously described (Adhikary, G. et al., PLoS One 8:e84324, 2013).
Spheroid formation assay. Spheroid formation assays were exactly as outlined previously (Adhikary, G. et al., PLoS ONE 8:e84324, 2013), except that the spheroids were grown in six well ultra-low attachment Costar cluster dishes (4371, Corning, Tewksbury, Mass.).
Spheroid formation assay. Spheroid formation assays were as reported previously (Adhikary, G. et al., PLoS One 8:e84324, 2013), except that the spheroids were grown in 6-well ultralow attachment Costar cluster dishes (Corning).

[6] = system: glioblastoma multiforme (GBM) cell lines; conditions: cited from earlier work
[7] = system: EGFR; conditions: cited from earlier work; for EGFR levels: U87, but not T98G cells, 24 hrs
[8] = biological target: FAK kinase (Homo sapiens, UniProt Q05397)
Chain of FAK kinase (Q05397 whole entry): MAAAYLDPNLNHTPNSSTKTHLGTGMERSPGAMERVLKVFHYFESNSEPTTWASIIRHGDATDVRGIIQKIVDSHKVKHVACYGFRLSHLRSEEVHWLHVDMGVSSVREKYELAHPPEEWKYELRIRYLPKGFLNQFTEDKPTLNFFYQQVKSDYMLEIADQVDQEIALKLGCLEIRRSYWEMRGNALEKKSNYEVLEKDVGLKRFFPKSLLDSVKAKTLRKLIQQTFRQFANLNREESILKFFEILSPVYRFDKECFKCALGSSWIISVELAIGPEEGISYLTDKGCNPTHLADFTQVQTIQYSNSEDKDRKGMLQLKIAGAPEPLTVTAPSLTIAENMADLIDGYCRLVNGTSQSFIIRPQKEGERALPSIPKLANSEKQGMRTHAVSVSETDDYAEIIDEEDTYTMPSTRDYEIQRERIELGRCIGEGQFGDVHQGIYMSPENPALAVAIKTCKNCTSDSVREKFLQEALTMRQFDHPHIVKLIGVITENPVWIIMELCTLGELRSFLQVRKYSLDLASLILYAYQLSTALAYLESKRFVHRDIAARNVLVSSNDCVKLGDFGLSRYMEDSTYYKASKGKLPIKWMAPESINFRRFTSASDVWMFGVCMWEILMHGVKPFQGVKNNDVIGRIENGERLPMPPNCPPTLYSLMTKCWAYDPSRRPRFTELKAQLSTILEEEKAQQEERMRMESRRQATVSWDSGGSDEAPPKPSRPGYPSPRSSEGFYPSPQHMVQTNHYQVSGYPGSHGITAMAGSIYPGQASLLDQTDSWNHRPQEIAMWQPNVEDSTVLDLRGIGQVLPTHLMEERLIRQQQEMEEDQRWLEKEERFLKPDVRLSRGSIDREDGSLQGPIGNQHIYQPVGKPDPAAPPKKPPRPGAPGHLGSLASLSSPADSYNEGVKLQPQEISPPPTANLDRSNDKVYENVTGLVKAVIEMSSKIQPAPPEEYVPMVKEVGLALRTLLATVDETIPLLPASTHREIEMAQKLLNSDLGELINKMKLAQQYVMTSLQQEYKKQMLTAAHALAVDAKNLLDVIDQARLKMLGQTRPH
Method: SCC-13 cells (40,000 per well) were grown in spheroid medium in attached (monolayer) or non-attached (spheroid, ECS cell). Cells were collected after 10 d and lysates were prepared for immunoblot. In (B), SCC-13 cells spheroid were grown for 8 d and extracts were immunoprecipitated as indicated prior to immunoblot. […] Cells were grown in spheroid medium in monolayer culture for 10 d prior to collection of lysates for immunoblot. […] In (J), (K), and (L), cells were double-electroporated with indicated siRNA and 24 h later plated for spheroid formation in the presence of the indicated inhibitor. […] The plotted values are mean±SEM and asterisks indicate significant change compared to control, n=3, p<0.005.
Immunoblot. Equivalent amounts of protein were electrophoresed on denaturing and reducing 10% polyacrylamide gels and transferred to nitrocellulose membrane. […] Secondary antibody binding was visualized using ECL Prime (Amersham) chemiluminescence detection technology.

[9] = system: ΔNp63α; test: ΔNp63α level immunoblot, YAP1-siRNA SCC-13 cells; type: cell-based, human; conditions: 1 μM lactacystin, 24 h
Method: In (A), cells were grown in spheroid medium in monolayer or spheroid culture and after 10 d harvested for immunoblot. In (B), SCC13-Control-shRNA and SCC13-TG2-shRNA2 cells were grown in monolayer culture in spheroid medium and lysates were collected for immunoblot detection of the indicated epitopes. […] In (F), SCC13-Control-shRNA and SCC13-TG2-shRNA2 cells were grown as monolayers in spheroid medium and lysates collected at 6 d for marker detection. In (G), SCC-13 cells were double-electroporated with Control- or TG2-siRNA and given 24 h to recover before being seeded on chamber slides. The following day, cells were fixed in 4% paraformaldehyde, stained with anti-YAP1 and appropriate secondary antibody, and co-stained with DAPI. In (H), SCC-13 cells, double-electroporated with Control- or TG2-siRNA, were grown in spheroid medium for 48 h prior to extracts being prepared for assay of ΔNp63α mRNA by qRT-PCR. In (I), SCC-13 cells were grown as spheroids and at day 8 lysates were collected for immunoprecipitation/immunoblot. In (J), SCC-13 cells were double-electroporated with Control- or YAP-siRNA followed by treatment with 1 μM lactacystin in monolayer culture. Extracts were prepared after an additional 24 h. In (K), SCC-13 cells were double-electroporated with Control- or YAPsiRNA and after 2 d in monolayer culture extracts were prepared for immunoblot. […]

Structure (SMILES): C=CC(=O)NCCCC[C@H](NC(=O)OCc1ccccc1)C(=O)N1CCN(C(=O)c2cccc3ccccc23)CC1 [AA9, (S)-benzyl (1-(4-(1-naphthoyl)piperazin-1-yl)-6-acrylamido-1-oxohexan-2-yl)carbamate]
- GTP binding of hTG2 after incubation with inhibitor [1]: abolish GTP binding nearly completely

- melting point: 48 to 49 °C
- kinact [2]: 0.0115 s⁻¹
- kinact/KI ([2]; read-out: kinact/Ki (μM^−1 min^−1), for ^a no saturation observed, efficiency obtained from initial slope): 2800 M⁻¹ s⁻¹
- kinact ([3]; read-out: kinact (converted)): 0.00833 s⁻¹
- kinact/KI ([3]; read-out: kinact/KI (10^3M^−1 min^−1)): 912 M⁻¹ s⁻¹
Structure (SMILES): C=CC(=O)NCCCC[C@H](NC(=O)OCc1ccccc1)C(=O)N1CCN(S(=O)(=O)C(C)C)CC1 [Compound 133, (S)-benzyl(6-acrylamido-1-(4-(isopropylsulfonyl)piperazin-1-yl)-1-oxohexan-2-yl)carbamate]

Structure (SMILES): CNc1ccc2oc(C[C@H]3O[C@@]4(CC[C@H]3C)O[C@H]([C@H](C)C(=O)c3ccc[nH]3)[C@H](C)C[C@H]4C)nc2c1C(=O)O [Compound A23187, reference compound]
- fluorescence lifetime of mCer-TG2-YFP [4]: ~3.1 ns

Structure (SMILES): NCCCCCNC(=S)Nc1ccc2c(c1)C(=O)OC21c2ccc(O)cc2Oc2cc(O)ccc21 [FC, fluorescein cadaverine, reference compound]
- spheroid number, pre-formed spheroids ([5]; spheroids grown for 8 days, then treated): reduced spheroid number

Structure (SMILES): CN(C)c1cccc2c(S(=O)(=O)NCCCCCN)cccc12 [MDC, monodansylcadaverine]
- proliferation of GBM cell lines [6]: reduce proliferation in two out of three glioblastoma multiforme (GBM) cell lines tested
- EGFR levels [7]: reduced the levels of EGFR
- EGFR phosphorylation in response to EGF ([7]; U87 cells, 30 min pretreatment): greatly reduced the extent of EGFR phosphorylation

- FAK kinase activity [8]: reduced FAK kinase activity
Structure (SMILES): CS(=O)(=O)c1cccc(CNc2nc(Nc3ccc4c(c3)CCC(=O)N4)ncc2C(F)(F)F)c1 [PF-573228, reference compound]
- spheroid formation with kinase inhibitor [5]: markedly reduced spheroid formation

Structure (SMILES): CC(C)(C)n1nc(-c2ccc(Cl)cc2)c2c(N)ncnc21 [PP2, reference compound]
- spheroid formation with kinase inhibitor [5]: suppressed spheroid formation

Structure (SMILES): COC(=O)[C@H](CC(C)C)NC(=O)[C@@H]1CCCN1C(=O)[C@@H](NC(=O)[C@H](CCC(=O)C=[N+]=[N-])NC(=O)OCc1ccccc1)C(C)C [Z-DON] (Cbz-[DON]VPL-OMe)
- proliferation of GBM cell lines [6]: reduce proliferation in two out of three glioblastoma multiforme (GBM) cell lines tested
- EGFR levels [7]: reduced the levels of EGFR

Structure (SMILES): CC(=O)N[C@@H](CSC(=O)[C@]1([C@@H](O)C(C)C)NC(=O)[C@H](C)[C@@H]1O)C(=O)O [lactacystin]
- ΔNp63α reduction caused by YAP1-siRNA [9]: partially reversed
